We go through five molecules from US12054498B2, “Heteroaromatic macrocyclic ether chemotherapeutic agents” (Nuvalent, Inc., priority 2020, dated 2024).

The structures appear in SMILES notation.

In test [1] the target is T1, Ba/F3 cells CD74-ROS1 G2032R (Homo sapiens, UniProt P08922, G2032R).
T1 construct: fusion of the C-terminus of ROS1 with the N-terminus of various partner proteins; host or cells: Ba/F3 (RIKEN), retroviral pMSCV-puro; the other entry of the earlier key: CD74 (P04233, HLA class II histocompatibility antigen gamma chain)
In words: Ba/F3 cell proliferation assay, CD74-ROS1 G2032R. The test is classed as cell-based. The conditions noted are these: 72 hours, CellTiter-Glo. Summed up:
(§1)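 Viability read by CellTiter-Glo luminescence after 72 h exposure to 3-fold serial compound dilutions, four-parameter logistic fitting giving IC50.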

Test [2] has as its system TPM3-NTRK1-wt IC50 / primary target IC50 (e.g. CD74-ROS1-wt). In words: TRKA selectivity in Ba/F3 cells (TRKA potency divided by primary target potency). It is filed as cell-based. Conditions: for TPM3-NTRK1-wt/CD74-ROS1-G2032R selectivity ratio: TRKA potency / CD74-ROS1-G2032R potency; for TPM3-NTRK1-wt/CD74-ROS1-wt selectivity ratio: TRKA potency / CD74-ROS1-wt potency; for TPM3-NTRK1-wt/EML4-ALK-L1196M-G1202R selectivity ratio: TRKA potency / EML4-ALK-L1196M-G1202R potency; for TPM3-NTRK1-wt/EML4-ALK-wt selectivity ratio: TRKA potency / EML4-ALK-wt potency. The procedure: TRKA selectivity was calculated by dividing a compound's TRKA potency by its primary target potency (e.g. TPM3-NTRK1-wt IC50/CD74-ROS1-wt IC50). Compound selectivity can be interpreted by binning ratio values: bin A for very high selectivity, ratio >30-fold; bin B for high selectivity, ratio >10-fold; bin C for moderate selectivity, ratio ≥1; and bin D for low selectivity, ratio <1. […] (nd=not determined).

For another test, the target named is T2, Ba/F3 cells TPM3-TRKA (Homo sapiens, UniProt P04629).
T2 construct: host or cells: Ba/F3 (RIKEN), retroviral pMSCV-puro; the other entry of the earlier key: TPM3 (P06753, Tropomyosin alpha-3 chain)
In words: Ba/F3 cell proliferation assay, TPM3-TRKA. The test is classed as cell-based. Conditions: 72 hours, CellTiter-Glo, read-out: TPM3-NTRK1-wt IC50. In a few lines: (§2)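 IL-3-independent Ba/F3 monoclones, puromycin-selected, transduced with fusion genes; 1,000 cells/well, 1 day rest, 3-fold compound series, 72 h. Read: CellTiter-Glo luminescence. IC50 from % inhibition vs concentration, 4-parameter logistic.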

Another test deals with T3, ROS1-wt (Homo sapiens, UniProt P08922).
T3 construct: purchased Carna 08-163
In words: Biochemical kinase assay, ROS1-wt kinase domain. The conditions noted are these: apparent inhibitory constant, Morrison equation; ATP 2 mM in substrate solution; read-out: ROS1-wt Ki^app. In a few lines: (§3)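 Kinetic read: 485 nm, 2-min intervals, 120 min, 30 °C. Substrate mix — ATP 2 mM, AQT0101 26 μM, HEPES 50 mM pH 7.5, MgCl2 10 mM. Output: Ki^app, Morrison equation.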

Test [3] has as its target T4, Ba/F3 cells CD74-ROS1 wild-type (wt) (Homo sapiens, UniProt P08922).
T4 construct: fusion of the C-terminus of ROS1 with the N-terminus of various partner proteins; host or cells: Ba/F3 (RIKEN), retroviral pMSCV-puro; the other entry of the earlier key: CD74 (P04233, HLA class II histocompatibility antigen gamma chain)
The test is described as follows: Ba/F3 cell proliferation assay, CD74-ROS1 wild-type. The test is classed as cell-based. Conditions: 72 hours, CellTiter-Glo. In a few lines: as §1

A further test deals with T5, ROS1-G2032R (Homo sapiens, UniProt P08922, G2032R).
T5 construct: purchased SignalChem R14-12BG
The test is described as follows: Biochemical kinase assay, ROS1-G2032R kinase domain. The conditions noted are these: apparent inhibitory constant, Morrison equation; ATP 2 mM in substrate solution; read-out: ROS1-G2032R Ki^app. Summed up:
as §3

The target in test [4] is T6, Ba/F3 cells EML4-ALK wt (variant 1) (Homo sapiens, UniProt Q9UM73).
T6 construct: echinoderm microtubule-associated protein-like 4 (EML4) gene and the ALK tyrosine kinase domain; host or cells: Ba/F3 (RIKEN), retroviral pMSCV-puro; the other entry of the earlier key: EML4 (Q9HC35, Echinoderm microtubule-associated protein-like 4)
The test is described as follows: Ba/F3 cell proliferation assay, EML4-ALK wt (variant 1). It is filed as cell-based. Conditions: 72 hours, CellTiter-Glo. Summed up:
as §2

The target of test [5] is T7, Ba/F3 cells EML4-ALK L1196M/G1202R (variant 1) (Homo sapiens, UniProt Q9UM73, G1202R/L1196M).
T7 construct: echinoderm microtubule-associated protein-like 4 (EML4) gene and the ALK tyrosine kinase domain; host or cells: Ba/F3 (RIKEN), retroviral pMSCV-puro; the other entry of the earlier key: EML4 (Q9HC35, Echinoderm microtubule-associated protein-like 4)
The test is described as follows: Ba/F3 cell proliferation assay, EML4-ALK L1196M/G1202R (variant 1). Conditions: 72 hours, CellTiter-Glo. The test is classed as cell-based. In a few lines:
as §2

Another test has as its target T8, TRKA-wt (Homo sapiens, UniProt P04629).
T8 construct: or TRKA-wt (1 nM, BPS Bio, 40280) kinase domains in buffer; purchased BPS Bio 40280
The test is described as follows: Biochemical kinase assay, TRKA-wt kinase domain. The conditions noted are these: apparent inhibitory constant, Morrison equation; ATP 2 mM in substrate solution; read-out: TRKA-wt Ki^app. Summed up:
(§4)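 Compound in DMSO added first, then substrate solution (ATP 2 mM; AQT0101 or AQT0104, 26 μM; pH 7.5 HEPES, 10 mM MgCl2), then kinase solution with enzyme at 0.5–3 nM depending on construct. Kinetic read every 2 min for 120 min at 30° C; Ki^app by Morrison regression.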

For the next test, the target named is T9, ALK-wt (Homo sapiens, UniProt Q9UM73).
T9 construct: purchased Carna 08-518
In words: Biochemical kinase assay, ALK-wt kinase domain. Conditions: apparent inhibitory constant, Morrison equation; ATP 2 mM in substrate solution; read-out: ALK-wt Ki^app. In a few lines:
as §4

The target in the next test is T10, ALK L1196M/G1202R (Homo sapiens, UniProt Q9UM73, G1202R/L1196M).
T10 construct: purchased SignalChem A19-12NG
The test is described as follows: Biochemical kinase assay, ALK L1196M/G1202R kinase domain. The conditions noted are these: apparent inhibitory constant, Morrison equation; ATP 2 mM in substrate solution; read-out: ALK-L1196M-G1202R Ki^app. Summed up: as §4

T10 sequence (Q9UM73 1116-1392 L1196M/G1202R limits assumed): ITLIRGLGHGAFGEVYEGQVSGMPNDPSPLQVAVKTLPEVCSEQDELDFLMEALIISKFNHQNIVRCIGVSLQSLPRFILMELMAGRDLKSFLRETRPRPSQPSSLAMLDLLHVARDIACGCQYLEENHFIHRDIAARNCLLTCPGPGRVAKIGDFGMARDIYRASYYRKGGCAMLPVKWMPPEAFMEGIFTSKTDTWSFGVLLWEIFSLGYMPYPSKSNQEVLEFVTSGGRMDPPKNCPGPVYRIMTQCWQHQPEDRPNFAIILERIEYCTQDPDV
T4 sequence (P08922 1883-2347 limits assumed): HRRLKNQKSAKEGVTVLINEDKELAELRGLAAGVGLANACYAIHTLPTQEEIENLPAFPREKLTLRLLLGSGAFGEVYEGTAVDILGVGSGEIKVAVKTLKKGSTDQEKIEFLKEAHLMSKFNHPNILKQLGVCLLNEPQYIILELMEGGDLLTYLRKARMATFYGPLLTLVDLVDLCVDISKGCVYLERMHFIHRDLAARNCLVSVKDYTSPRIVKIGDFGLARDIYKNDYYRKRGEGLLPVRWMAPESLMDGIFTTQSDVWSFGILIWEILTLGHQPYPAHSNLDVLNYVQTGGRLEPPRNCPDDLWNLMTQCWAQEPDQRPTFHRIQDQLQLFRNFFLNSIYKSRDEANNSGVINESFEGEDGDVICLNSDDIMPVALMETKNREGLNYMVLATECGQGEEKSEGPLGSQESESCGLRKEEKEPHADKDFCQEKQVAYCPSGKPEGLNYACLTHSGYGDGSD
T5 sequence (P08922 1945-2222 G2032R limits assumed): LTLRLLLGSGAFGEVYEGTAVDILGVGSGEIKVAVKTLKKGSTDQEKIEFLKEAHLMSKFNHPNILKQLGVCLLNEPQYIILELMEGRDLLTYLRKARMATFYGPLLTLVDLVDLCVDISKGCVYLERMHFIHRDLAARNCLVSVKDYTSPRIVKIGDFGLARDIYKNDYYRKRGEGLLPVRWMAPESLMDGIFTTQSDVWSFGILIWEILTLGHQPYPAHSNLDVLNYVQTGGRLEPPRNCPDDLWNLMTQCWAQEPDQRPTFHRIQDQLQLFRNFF
T7 sequence (Q9UM73 with tags, fused parts or gaps L1196M/G1202R): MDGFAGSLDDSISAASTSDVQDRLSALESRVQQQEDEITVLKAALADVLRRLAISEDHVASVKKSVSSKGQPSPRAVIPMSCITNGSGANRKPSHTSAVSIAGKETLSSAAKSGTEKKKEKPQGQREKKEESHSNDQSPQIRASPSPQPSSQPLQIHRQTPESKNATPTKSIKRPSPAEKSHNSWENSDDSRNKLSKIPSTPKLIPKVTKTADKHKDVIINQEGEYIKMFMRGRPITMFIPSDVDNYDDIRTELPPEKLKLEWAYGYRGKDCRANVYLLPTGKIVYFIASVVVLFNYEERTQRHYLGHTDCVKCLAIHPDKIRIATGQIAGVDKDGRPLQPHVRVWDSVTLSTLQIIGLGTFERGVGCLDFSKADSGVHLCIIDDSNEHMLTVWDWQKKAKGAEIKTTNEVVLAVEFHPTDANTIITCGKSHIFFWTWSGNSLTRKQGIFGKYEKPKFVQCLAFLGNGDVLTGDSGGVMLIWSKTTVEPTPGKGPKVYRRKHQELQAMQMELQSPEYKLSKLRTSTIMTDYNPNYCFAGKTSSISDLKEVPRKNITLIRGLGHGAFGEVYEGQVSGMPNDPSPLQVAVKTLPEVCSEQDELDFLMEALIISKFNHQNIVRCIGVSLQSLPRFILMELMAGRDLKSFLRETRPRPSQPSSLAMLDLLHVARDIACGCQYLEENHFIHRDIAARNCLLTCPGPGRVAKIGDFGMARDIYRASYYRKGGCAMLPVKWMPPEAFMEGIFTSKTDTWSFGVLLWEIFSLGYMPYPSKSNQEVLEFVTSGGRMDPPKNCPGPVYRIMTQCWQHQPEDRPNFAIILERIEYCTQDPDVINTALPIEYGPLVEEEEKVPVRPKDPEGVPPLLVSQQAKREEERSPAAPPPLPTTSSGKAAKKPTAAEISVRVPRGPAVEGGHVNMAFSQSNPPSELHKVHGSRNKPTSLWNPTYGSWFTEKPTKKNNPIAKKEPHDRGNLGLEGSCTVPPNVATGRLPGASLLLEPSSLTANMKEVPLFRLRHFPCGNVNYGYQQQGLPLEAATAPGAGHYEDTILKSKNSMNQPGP
T1 sequence (P08922 1883-2347 G2032R limits assumed): as the sequence (P08922 1883-2347 limits assumed) above, with G150R counted along it
T3 sequence (P08922 1945-2222 limits assumed): as the sequence (P08922 1945-2222 G2032R limits assumed) above, with R88G counted along it
T6 sequence (Q9UM73 with tags, fused parts or gaps): as the sequence (Q9UM73 with tags, fused parts or gaps L1196M/G1202R) above, with M635L, R641G counted along it
T8 sequence (P04629 510-781 limits assumed): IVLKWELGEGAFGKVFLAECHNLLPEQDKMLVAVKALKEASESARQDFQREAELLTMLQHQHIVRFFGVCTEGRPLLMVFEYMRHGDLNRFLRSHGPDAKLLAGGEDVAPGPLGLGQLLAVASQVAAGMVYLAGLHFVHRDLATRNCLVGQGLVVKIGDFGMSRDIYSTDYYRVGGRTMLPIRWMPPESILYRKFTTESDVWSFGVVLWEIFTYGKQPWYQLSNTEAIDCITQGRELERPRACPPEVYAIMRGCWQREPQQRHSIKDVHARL
T9 sequence (Q9UM73 1116-1392 limits assumed): as the sequence (Q9UM73 1116-1392 L1196M/G1202R limits assumed) above, with M81L, R87G counted along it
T2 sequence (P04629 510-796 limits assumed): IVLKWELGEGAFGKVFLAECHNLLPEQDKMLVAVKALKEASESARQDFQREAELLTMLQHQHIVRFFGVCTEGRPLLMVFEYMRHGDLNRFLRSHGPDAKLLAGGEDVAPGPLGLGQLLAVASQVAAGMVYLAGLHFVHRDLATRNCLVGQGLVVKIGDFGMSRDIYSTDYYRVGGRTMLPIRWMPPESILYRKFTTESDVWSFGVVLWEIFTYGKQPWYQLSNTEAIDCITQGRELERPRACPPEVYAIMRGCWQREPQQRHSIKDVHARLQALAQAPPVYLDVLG

As to `C[C@H]1Oc2cc(cnc2N)-c2c(nnn2CC2CC2)Cc2nn(C)nc2-c2ccc(F)cc21` [Example 51, (19R)-3-(cyclopropylmethyl)-16-fluoro-10,19-dimethyl-20-oxa-3,4,5,9,10,11,23-heptaazapentacyclo[19.3.1.0^2,^6.0^8,^12.0^13,^18]pentacosa-1(24),2(6),4,8,11,13,15,17,21(25),22-decaen-22-amine], the IC50 was 0.1 to 50 nM in test [1]; > 500 nM at Ba/F3 cells TPM3-TRKA; 0.1 to 50 nM in test [3]; 0.1 to 50 nM in test [4]; 0.1 to 50 nM in [5]. Moreover, the TPM3-NTRK1-wt/CD74-ROS1-G2032R selectivity ratio entry in test [2] was “A (bin A for very high selectivity, ratio >30-fold)”. Also, the TPM3-NTRK1-wt/CD74-ROS1-wt selectivity ratio entry in test [2] is “A (bin A for very high selectivity, ratio >30-fold)”. For the same molecule, the TPM3-NTRK1-wt/EML4-ALK-L1196M-G1202R selectivity ratio entry in test [2] is “A (bin A for very high selectivity, ratio >30-fold)”. Also, the TPM3-NTRK1-wt/EML4-ALK-wt selectivity ratio result in test [2] is given as “A (bin A for very high selectivity, ratio >30-fold)”. For the same molecule, the Ki at ROS1-wt is < 50 nM; on ROS1-G2032R, < 50 nM; on TRKA-wt, > 500 nM; on ALK-wt, < 50 nM; at ALK L1196M/G1202R, < 50 nM.
Regarding `C[C@H]1Oc2cc(cnc2N)-c2c(C3CCC3)noc2Cn2ncnc2-c2ccc(F)cc21` [Example 52, (19R)-3-cyclobutyl-16-fluoro-19-methyl-5,20-dioxa-4,8,9,11,23-pentaazapentacyclo[19.3.1.0^2,^6.0^8,^12.0^13,^18]pentacosa-1(24),2(6),3,9,11,13,15,17,21(25),22-decaen-22-amine], the half-inhibitory concentration (IC50) in [1] was 0.1 to 50 nM; at Ba/F3 cells TPM3-TRKA it was > 500 nM; in test [3], 0.1 to 50 nM; in test [4], 0.1 to 50 nM; in test [5], 50 to 500 nM. Besides, in test [2], the TPM3-NTRK1-wt/CD74-ROS1-G2032R selectivity ratio entry is “A (bin A for very high selectivity, ratio >30-fold)”. In addition, the TPM3-NTRK1-wt/CD74-ROS1-wt selectivity ratio result in test [2] is given as “A (bin A for very high selectivity, ratio >30-fold)”. For the same molecule, the TPM3-NTRK1-wt/EML4-ALK-L1196M-G1202R selectivity ratio result in test [2] is reported as “C (bin C for moderate selectivity, ratio ≥1)”. For the same molecule, in [2], the TPM3-NTRK1-wt/EML4-ALK-wt selectivity ratio entry was “A (bin A for very high selectivity, ratio >30-fold)”. Further, the Ki at ROS1-wt is < 50 nM; on ROS1-G2032R, < 50 nM; on TRKA-wt, > 500 nM; on ALK-wt, < 50 nM; at ALK L1196M/G1202R, < 50 nM.
Regarding `CCn1nnc2c1-c1cnc(N)c(c1)O[C@H](C)c1cc(F)ccc1-c1scnc1C2` [Example 53, (19R)-3-ethyl-16-fluoro-19-methyl-20-oxa-11-thia-3,4,5,9,23-pentaazapentacyclo[19.3.1.0^2,^6.0^8,^12.0^13,^18]pentacosa-1(24),2(6).4,8(12),9,13,15,17,21(25),22-decaen-22-amine], the IC50 in test [1] was 0.1 to 50 nM; on Ba/F3 cells TPM3-TRKA it was > 500 nM; in test [3], 0.1 to 50 nM; in [4], 0.1 to 50 nM; in test [5] it was 50 to 500 nM. In addition, in [2], the TPM3-NTRK1-wt/CD74-ROS1-G2032R selectivity ratio result is reported as “A (bin A for very high selectivity, ratio >30-fold)”. Moreover, in test [2], the TPM3-NTRK1-wt/CD74-ROS1-wt selectivity ratio entry is given as “A (bin A for very high selectivity, ratio >30-fold)”. The TPM3-NTRK1-wt/EML4-ALK-L1196M-G1202R selectivity ratio result in test [2] is given as “C (bin C for moderate selectivity, ratio ≥1)”. Also, the TPM3-NTRK1-wt/EML4-ALK-wt selectivity ratio entry in test [2] was “B (bin B for high selectivity, ratio >10-fold)”. Moreover, the Ki at ROS1-wt is < 50 nM; at ROS1-G2032R, < 50 nM; on TRKA-wt it was > 500 nM; on ALK-wt, < 50 nM; at ALK L1196M/G1202R, < 50 nM.
Regarding `CCn1nnc2c1-c1cnc(N)c(c1)O[C@H](C)c1cc(F)ccc1-c1cc(Cl)nn1C2` [Example 54, (19R)-10-chloro-3-ethyl-16-fluoro-19-methyl-20-oxa-3,4,5,8,9,23-hexaazapentacyclo[19.3.1.0^2,^6.0^8,^12.0^13,^18]pentacosa-1(24),2(6),4,9,11,13,15,17,21(25),22-decaen-22-amine], the IC50 lay within 0.1 to 50 nM in test [1]; 50 to 500 nM on Ba/F3 cells TPM3-TRKA; 0.1 to 50 nM in test [3]; 0.1 to 50 nM in test [4]; 50 to 500 nM in test [5]. For the same molecule, the TPM3-NTRK1-wt/CD74-ROS1-G2032R selectivity ratio entry in test [2] is on record as “A (bin A for very high selectivity, ratio >30-fold)”. Also, the TPM3-NTRK1-wt/CD74-ROS1-wt selectivity ratio result in test [2] was “A (bin A for very high selectivity, ratio >30-fold)”. Also, the TPM3-NTRK1-wt/EML4-ALK-L1196M-G1202R selectivity ratio entry in test [2] is “D (bin D for low selectivity, ratio <1)”. Moreover, in [2], the TPM3-NTRK1-wt/EML4-ALK-wt selectivity ratio entry is “C (bin C for moderate selectivity, ratio ≥1)”. Also, the Ki was < 50 nM on ROS1-wt; < 50 nM on ROS1-G2032R; 50 to 500 nM at TRKA-wt; < 50 nM at ALK-wt; 50 to 500 nM on ALK L1196M/G1202R.
Regarding `C[C@H]1Oc2cc(cnc2N)-c2c(cnn2CC(F)F)Cn2nc(Cl)cc2-c2ccc(F)cc21` [Example 55, (19R)-10-chloro-3-(2,2difluoroethyl)-16-fluoro-19-methyl-20-oxa-3,4,8,9,23-pentaazapentacyclo[19.3.1.0^2,^6.0^8,^12.0^13,^18]pentacosa-1(24),2(6),4,9,11,13,15,17,21(25),22-decaen-22-amine], the IC50 in test [1] is 0.1 to 50 nM; on Ba/F3 cells TPM3-TRKA it was > 500 nM; in test [3] it was 0.1 to 50 nM; in test [4], 0.1 to 50 nM; in test [5] it was 50 to 500 nM. Further, the TPM3-NTRK1-wt/CD74-ROS1-G2032R selectivity ratio result in test [2] was “A (bin A for very high selectivity, ratio >30-fold)”. For the same molecule, in [2], the TPM3-NTRK1-wt/CD74-ROS1-wt selectivity ratio entry is reported as “A (bin A for very high selectivity, ratio >30-fold)”. The TPM3-NTRK1-wt/EML4-ALK-L1196M-G1202R selectivity ratio result in test [2] was “C (bin C for moderate selectivity, ratio ≥1)”. Besides, the TPM3-NTRK1-wt/EML4-ALK-wt selectivity ratio result in test [2] is reported as “A (bin A for very high selectivity, ratio >30-fold)”. The Ki on ROS1-wt was < 50 nM; on ROS1-G2032R, < 50 nM; on TRKA-wt it was > 500 nM; on ALK-wt, < 50 nM; at ALK L1196M/G1202R it was 50 to 500 nM.
